In US20250243218A1, “NOVEL CARBAMATE COMPOUND AND USE THEREOF” (CHENGDU SHIBEIKANG BIOMEDICAL TECHNOLOGY CO., LTD., priority 2022, published 2025):

These molecules were tested against T1, hERG potassium channel (Homo sapiens, UniProt Q12809) (assay: cell-based). Details: IC50 (μM), inhibition of cardiac hERG potassium channel, manual patch-clamp, stably overexpressed hERG channel.
T1 construct: expressed in transfected cells
T1 sequence (Q12809 whole entry): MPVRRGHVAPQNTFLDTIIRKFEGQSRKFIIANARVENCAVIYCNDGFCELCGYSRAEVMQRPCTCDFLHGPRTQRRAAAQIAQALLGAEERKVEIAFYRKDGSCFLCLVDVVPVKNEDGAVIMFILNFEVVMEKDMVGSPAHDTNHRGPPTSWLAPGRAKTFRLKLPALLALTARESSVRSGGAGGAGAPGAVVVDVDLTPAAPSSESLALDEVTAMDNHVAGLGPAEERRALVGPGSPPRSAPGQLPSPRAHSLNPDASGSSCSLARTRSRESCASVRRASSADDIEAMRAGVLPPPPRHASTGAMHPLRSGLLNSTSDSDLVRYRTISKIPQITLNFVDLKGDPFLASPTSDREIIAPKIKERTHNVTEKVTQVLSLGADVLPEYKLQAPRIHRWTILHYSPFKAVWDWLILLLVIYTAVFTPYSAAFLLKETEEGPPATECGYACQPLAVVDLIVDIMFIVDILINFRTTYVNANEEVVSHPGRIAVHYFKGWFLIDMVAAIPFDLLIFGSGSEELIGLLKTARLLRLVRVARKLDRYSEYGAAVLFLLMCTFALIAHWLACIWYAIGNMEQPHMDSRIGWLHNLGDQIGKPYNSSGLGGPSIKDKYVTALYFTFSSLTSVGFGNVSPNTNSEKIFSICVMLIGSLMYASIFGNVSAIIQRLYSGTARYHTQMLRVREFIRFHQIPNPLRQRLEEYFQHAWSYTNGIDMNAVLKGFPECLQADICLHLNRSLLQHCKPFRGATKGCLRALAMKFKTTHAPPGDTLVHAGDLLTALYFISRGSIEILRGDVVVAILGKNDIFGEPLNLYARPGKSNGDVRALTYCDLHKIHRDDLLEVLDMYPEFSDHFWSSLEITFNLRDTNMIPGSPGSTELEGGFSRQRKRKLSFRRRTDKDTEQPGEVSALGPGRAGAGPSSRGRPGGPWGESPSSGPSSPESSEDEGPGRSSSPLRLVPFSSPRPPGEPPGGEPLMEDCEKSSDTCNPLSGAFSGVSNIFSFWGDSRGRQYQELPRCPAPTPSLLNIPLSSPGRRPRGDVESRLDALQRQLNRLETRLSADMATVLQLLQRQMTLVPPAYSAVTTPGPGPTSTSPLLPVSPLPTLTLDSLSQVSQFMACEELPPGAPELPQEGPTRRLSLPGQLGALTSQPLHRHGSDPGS
Excerpt: Test Example 2: Effect of Compounds on Current in Stably Overexpressed hERG Channel
`CCCN1CCN(C(=O)Oc2cc3c(s2)CCN([C@H](C(=O)OC)c2ccccc2Cl)C3)CC1` [Compound 3, (S)-5-(1-(2-chlorophenyl)-2-methoxy-2-oxyethyl)-4,5,6,7-t etrahydrothieno[3,2-c]pyridin-2-yl-4-propylpiperazine-1-carboxylate] showed an IC50 of 15.2 µM. `COC(=O)[C@H](c1ccccc1Cl)N1CCc2sc(OC(=O)N3CCN(C4CC4)CC3)cc2C1` [Compound 4, (S)-5-(1-(2-chlorophenyl)-2-methoxy-2-oxyethyl)-4,5,6,7-tetrahydrothieno[3,2-c]pyridin-2-yl 4-cyclopropylpiperazine-1-carboxylate] was tested, and the IC50 was 16.4 µM. For `COC(=O)[C@H](c1ccccc1Cl)N1CCc2sc(OC(=O)N3CCN(C4CCCC4)CC3)cc2C1` [Compound 5, (S)-5-(1-(2-chlorophenyl)-2-methoxy-2-oxyethyl)-4,5,6,7-tetrahydrothieno[3,2-c]pyridin-2-yl 4-cyclopentylpiperazine-1-carboxylate], the IC50 was 15.8 µM. In the case of `COC(=O)[C@H](c1ccccc1Cl)N1CCc2sc(OC(=O)N3CCN(C4CCCCC4)CC3)cc2C1` [Compound 6, (S)-5-(1-(2-chlorophenyl)-2-methoxy-2-oxyethyl)-4,5,6,7-tetrahydrothieno[3,2-c]pyridin-2-yl 4-cyclohexylpiperazine-1-carboxylate], the IC50 is reported as 14.9 µM. Work on `COC(=O)[C@H](c1ccccc1Cl)N1CCc2sc(OC(=O)N3CCC(C4CCN(C)C4)CC3)cc2C1` (stereo partly drawn) [Compound 9, 5-((S)-1-(2-chlorophenyl)-2-methoxy-2-oxyethyl)-4,5,6,7-tetrahydrothieno[3,2-c]pyridin-2-yl-4-(1-methylpyrrolidine-3-yl) piperidine-1-carboxylate] yielded an IC50 of 27.2 µM. In the case of `COC(=O)[C@H](c1ccccc1Cl)N1CCc2sc(OC(=O)N3CCC(N4CCN(C)CC4)CC3)cc2C1` [Compound 10, (S)-5-(1-(2-chlorophenyl)-2-methoxy-2-oxyethyl)-4,5,6,7-tetrahydrothieno[3,2-c]pyridin-2-yl-4-(4-methylpiperazine-1-yl) piperidine-1-carboxylate], the IC50 is reported as 25.9 µM.
